For the assay, the system named is L1210 leukemia ip in BDF1 mice, survival T/C. As to the kind of experiment: NCI In Vivo Anticancer Drug Screen. Data for tumor model L1210 Leukemia (intraperitoneal) in B6D2F1 (BDF1) mice. As to conditions: endpoint: mean survival time, higher = longer survival. An outline of the steps: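 Each compound was tested against a transplantable tumor grown in mice. The endpoint was survival, with treated animals benchmarked against vehicle controls as a simple ratio.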

Four molecules from PubChem BioAssay AID248 (DTP/NCI, 2004) can be followed below.

“And” between values parts separate entries of the source, which are not always exact repeats. Equal values may be shown once. Toxic doses and inconclusive results are not listed.

With `O=C(Nc1ccc(C2=NCCN2)cc1)c1cccc(C(=O)Nc2ccc(C3=NCCN3)cc2)c1`, the T/C was 114 % of control (dose: 1.0 mg/kg/injection, schedule: Q#A X Z (ip), vehicle: methylcellulose (MC)); 104 % of control (dose: 1.4 mg/kg/injection, schedule: Q01DX Z (ip), vehicle: methylcellulose (MC)); 113 % of control (dose: 1.88 mg/kg/injection, schedule: Q01DX Z (ip), vehicle: saline); 117 % of control (dose: 2.0 mg/kg/injection, schedule: Q01DX Z (ip), vehicle: methylcellulose (MC)); 94 % of control and 100 % of control (dose: 2.5 mg/kg/injection, schedule: Q01DX Z (iv), vehicle: other); 158 % of control (dose: 4.0 mg/kg/injection, schedule: Q#A X Z (ip), vehicle: methylcellulose (MC)). For the same molecule, the T/C was 94 % of control (dose: 5.0 mg/kg/injection, schedule: Q01DX Z (iv), vehicle: other); 109 % of control (dose: 6.0 mg/kg/injection, schedule: Q03DX Z (ip), vehicle: methylcellulose (MC)); 236 % of control (dose: 6.6 mg/kg/injection, schedule: Q01DX015 (ip), vehicle: carboxymethylcellulose (CMC)); 171 % of control (dose: 7.5 mg/kg/injection, schedule: Q01DX009 (ip), vehicle: saline); 168 % of control (dose: 7.5 mg/kg/injection, schedule: Q01DX Z (ip), vehicle: methylcellulose (MC)); 97 % of control (dose: 8.0 mg/kg/injection, schedule: Q01DX004 (im), vehicle: olive oil, sesame oil, peanut oil). Moreover, the T/C is 164 % of control (dose: 8.0 mg/kg/injection, schedule: Q01DX Z (ip), vehicle: methylcellulose (MC)); 273 % of control (dose: 8.0 mg/kg/injection, schedule: Q#A X Z (ip), vehicle: methylcellulose (MC)); 261 % of control (dose: 9.9 mg/kg/injection, schedule: Q01DX015 (ip), vehicle: carboxymethylcellulose (CMC)); 97 % of control and 100 % of control (dose: 10.0 mg/kg/injection, schedule: Q01DX Z (iv), vehicle: other); 173 % of control and 206 % of control (dose: 15.0 mg/kg/injection, schedule: Q01DX009 (ip), vehicle: saline); 309 % of control (dose: 15.0 mg/kg/injection, schedule: Q01DX015 (ip), vehicle: carboxymethylcellulose (CMC)). In addition, the T/C is 212 % of control (dose: 15.0 mg/kg/injection, schedule: Q01DX Z (ip), vehicle: carboxymethylcellulose (CMC)); 255 % of control and 369 % of control (dose: 15.0 mg/kg/injection, schedule: Q01DX Z (ip), vehicle: methylcellulose (MC)); 214 % of control and 264 % of control (dose: 15.0 mg/kg/injection, schedule: Q01DX Z (ip), vehicle: saline); 100 % of control (dose: 16.0 mg/kg/injection, schedule: Q01DX004 (im), vehicle: olive oil, sesame oil, peanut oil); 169 % of control (dose: 16.0 mg/kg/injection, schedule: Q01DX010 (ip), vehicle: saline); 331 % of control (dose: 16.0 mg/kg/injection, schedule: Q01DX Z (ip), vehicle: methylcellulose (MC)). Moreover, the T/C is 350 % of control (dose: 16.0 mg/kg/injection, schedule: Q#A X Z (ip), vehicle: methylcellulose (MC)); 341 % of control (dose: 22.5 mg/kg/injection, schedule: Q01DX015 (ip), vehicle: carboxymethylcellulose (CMC)); 167 % of control (dose: 24.0 mg/kg/injection, schedule: Q03DX Z (ip), vehicle: methylcellulose (MC)); 184 % of control and 240 % of control (dose: 30.0 mg/kg/injection, schedule: Q01DX009 (ip), vehicle: saline); 367 % of control (dose: 30.0 mg/kg/injection, schedule: Q01DX Z (ip), vehicle: carboxymethylcellulose (CMC)); 119 % of control and 329 % of control (dose: 30.0 mg/kg/injection, schedule: Q01DX Z (ip), vehicle: methylcellulose (MC)). Moreover, the T/C reads like this: (dose: 30.0 mg/kg/injection, schedule: Q01DX Z (ip), vehicle: saline) 329 % of control; (dose: 32.0 mg/kg/injection, schedule: Q01DX004 (im), vehicle: olive oil, sesame oil, peanut oil) 97 % of control; (dose: 32.0 mg/kg/injection, schedule: Q01DX010 (ip), vehicle: saline) 241 % of control; (dose: 32.0 mg/kg/injection, schedule: Q01DX Z (ip), vehicle: methylcellulose (MC)) 347 % of control; (dose: 32.0 mg/kg/injection, schedule: Q01DX Z (sc), vehicle: methylcellulose (MC)) 205 % of control; (dose: 32.0 mg/kg/injection, schedule: Q#A X Z (ip), vehicle: methylcellulose (MC)) 193 % of control. The T/C was 316 % of control (dose: 33.75 mg/kg/injection, schedule: Q01DX015 (ip), vehicle: carboxymethylcellulose (CMC)); 267 % of control (dose: 48.0 mg/kg/injection, schedule: Q03DX Z (ip), vehicle: methylcellulose (MC)); 166 % of control (dose: 56.0 mg/kg/injection, schedule: Q07DX Z (ip), vehicle: methylcellulose (MC)); 194 % of control and 228 % of control (dose: 60.0 mg/kg/injection, schedule: Q01DX009 (ip), vehicle: saline); 255 % of control (dose: 60.0 mg/kg/injection, schedule: Q01DX Z (ip), vehicle: carboxymethylcellulose (CMC)); 106 % of control (dose: 60.0 mg/kg/injection, schedule: Q01DX Z (ip), vehicle: methylcellulose (MC)). In addition, the T/C by setting is: (dose: 60.0 mg/kg/injection, schedule: Q01DX Z (ip), vehicle: saline) 280 % of control; (dose: 60.0 mg/kg/injection, schedule: Q01DX Z (oral), vehicle: methylcellulose (MC)) 114 % of control; (dose: 64.0 mg/kg/injection, schedule: Q01DX004 (im), vehicle: olive oil, sesame oil, peanut oil) 114 % of control; (dose: 64.0 mg/kg/injection, schedule: Q01DX010 (ip), vehicle: saline) 276 % of control; (dose: 64.0 mg/kg/injection, schedule: Q01DX Z (sc), vehicle: methylcellulose (MC)) 317 % of control; (dose: 96.0 mg/kg/injection, schedule: Q03DX Z (ip), vehicle: methylcellulose (MC)) 352 % of control. For the same molecule, the T/C is 156 % of control (dose: 100.0 mg/kg/injection, schedule: Q01DX001 (ip), vehicle: water); 243 % of control (dose: 112.0 mg/kg/injection, schedule: Q07DX Z (ip), vehicle: methylcellulose (MC)); 334 % of control (dose: 120.0 mg/kg/injection, schedule: Q01DX009 (ip), vehicle: saline); 89 % of control (dose: 120.0 mg/kg/injection, schedule: Q01DX Z (ip), vehicle: methylcellulose (MC)); 211 % of control (dose: 120.0 mg/kg/injection, schedule: Q01DX Z (ip), vehicle: saline); 91 % of control (dose: 120.0 mg/kg/injection, schedule: Q01DX Z (oral), vehicle: methylcellulose (MC)). For the same molecule, the T/C runs as follows: (dose: 128.0 mg/kg/injection, schedule: Q01DX Z (sc), vehicle: methylcellulose (MC)) 338 % of control; (dose: 192.0 mg/kg/injection, schedule: Q03DX Z (ip), vehicle: methylcellulose (MC)) 189 % of control; (dose: 200.0 mg/kg/injection, schedule: Q01DX001 (ip), vehicle: water) 194 % of control; (dose: 240.0 mg/kg/injection, schedule: Q01DX Z (oral), vehicle: methylcellulose (MC)) 97 % of control; (dose: 256.0 mg/kg/injection, schedule: Q01DX Z (sc), vehicle: methylcellulose (MC)) 341 % of control; (dose: 300.0 mg/kg/injection, schedule: Q01DX001 (ip), vehicle: water) 247 % of control. The T/C (dose: 480.0 mg/kg/injection, schedule: Q01DX Z (oral), vehicle: methylcellulose (MC)) is 89 % of control.
Take `CC(=O)N(C)c1ccc(NC(=O)C2CCCCC2C(=O)O)cc1` (stereo not given): the T/C is 98 % of control (dose: 100.0 mg/kg/injection, schedule: Q01DX009 (ip), vehicle: Klucel (hydroxypropylcellulose) (HPC)); 95 % of control (dose: 200.0 mg/kg/injection, schedule: Q01DX009 (ip), vehicle: Klucel (hydroxypropylcellulose) (HPC)); 93 % of control (dose: 400.0 mg/kg/injection, schedule: Q01DX009 (ip), vehicle: Klucel (hydroxypropylcellulose) (HPC)).
Regarding `C/C=C1\CN(C(=O)C(NC(=O)C(N)C(O)C(O)COC(N)=O)C2OC(n3cc(C(=O)O)c(=O)[nH]c3=O)C(O)C2O)C1C(=O)O` (stereo not given) (tested in a mixture with another compound), the T/C was 109 % of control (dose: 100.0 mg/kg/injection, schedule: Q01DX001 (ip), vehicle: saline); 103 % of control (dose: 200.0 mg/kg/injection, schedule: Q01DX001 (ip), vehicle: saline); 97 % of control (dose: 400.0 mg/kg/injection, schedule: Q01DX001 (ip), vehicle: saline).
In the case of `CC(=O)/C=C(/C(=O)c1ccccc1)c1ccccc1`, the T/C by setting is: (dose: 100.0 mg/kg/injection, schedule: Q01DX001 (ip), vehicle: saline with Tween-80) 93 % of control; (dose: 200.0 mg/kg/injection, schedule: Q01DX001 (ip), vehicle: saline with Tween-80) 98 % of control; (dose: 400.0 mg/kg/injection, schedule: Q01DX001 (ip), vehicle: saline with Tween-80) 97 % of control.
